Test results published in patent publication US4515941A, “23-Demycinosyldesmycosin derivatives” (Toyo Jozo Kabushiki Kaisha, priority 1982, dated 1985).
Where two headings read alike, the source gives them in different places.

Columns and labels:
Assay type in all cases: cell-based
[1] = system: Staphylococcus aureus 0119; experiment: MIC, Staphylococcus aureus 0119 (macrolide resistant); settings: macrolide resistant bacteria A group
Excerpt: (§1) *macrolide resistant bacteria A group (clinical isolates of erythromycin,
(§2) oleandomycin and 16membered macrolide antibiotic resistant strains.)

[2] = system: Staphylococcus aureus MS353; experiment: MIC, Staphylococcus aureus MS353; settings: Staphylococcus aureus MS353; read-out: MIC
Shigella sonnei E33 = experiment: MIC, Shigella sonnei E33
[3] = system: Streptococcus agalactiae 1020; experiment: MIC, Streptococcus agalactiae 1020; settings: Streptococcus agalactiae 1020; read-out: MIC
[4] = system: Streptococcus pyogenes 1022; experiment: MIC, Streptococcus pyogenes 1022 (macrolide resistant); settings: Streptococcus pyogenes 1022; macrolide resistant bacteria A group; read-out: MIC
Excerpt: as §1, §2

[5] = system: Shigella flexineri type 3a; experiment: MIC, Shigella flexineri type 3a; settings: TYPE3A
[6] = system: Streptococcus pyogenes N.Y.5; experiment: MIC, Streptococcus pyogenes N.Y.5; settings: read-out: MIC
[7] = system: Streptococcus faecalis 1501; experiment: MIC, Streptococcus faecalis 1501; settings: Enterococcus faecalis; Streptococcus faecalis 1501; read-out: MIC
Proteus vulgaris OX19 = experiment: MIC, Proteus vulgaris OX19; settings: Proteus vulgaris OX19; read-out: MIC
[8] = system: Staphylococcus epidermis sp-al-1; experiment: MIC, Staphylococcus epidermis sp-al-1; settings: SPAL1; Staphylococcus epidermis sp-al-1; read-out: MIC
[9] = system: Staphylococcus aureus MS353 A0; experiment: MIC, Staphylococcus aureus MS353 A0 (macrolide resistant); settings: MS353A0, macrolide resistant bacteria A group
Excerpt: as §1, §2

Escherichia coli B = experiment: MIC, Escherichia coli B
[10] = system: Klebsiella pneumoniae ATCC 10031; experiment: MIC, Klebsiella pneumoniae ATCC 10031; settings: ATCC10031; Klebsiella pneumoniae ATCC 10031; read-out: MIC
[11] = system: Micrococcus flavus ATCC 10240; experiment: MIC, Micrococcus flavus ATCC 10240; settings: ATCC10240; Micrococcus flavus ATCC 10240; read-out: MIC
Sarcina lutea ATCC 9341 = experiment: MIC, Sarcina lutea ATCC 9341; settings: Micrococcus luteus, ATCC9341
Salmonella typhosa H901 = experiment: MIC, Salmonella typhosa H901; settings: Salmonella enterica, TYPHOSA
[12] = system: Bacillus subtilis ATC 6633; experiment: MIC, Bacillus subtilis ATC 6633; settings: ATC6633; Bacillus subtilis ATC 6633; read-out: MIC
[13] = system: Salmonella enteritidis Gaertner; experiment: MIC, Salmonella enteritidis Gaertner; settings: Salmonella enterica; Salmonella enteritidis Gaertner; read-out: MIC
[14] = system: Corynebacterium diptheriae P.Y.8; experiment: MIC, Corynebacterium diptheriae P.Y.8; settings: Corynebacterium diptheriae P.Y.8; read-out: MIC
[15] = system: Escherichia coli NIHJ-JC2; experiment: MIC, Escherichia coli NIHJ-JC2; settings: NIHJJC2
[16] = system: Staphylococcus aureus ATCC 6538P; experiment: MIC, Staphylococcus aureus ATCC 6538P; settings: ATCC6538P, read-out: MIC
[17] = system: Pseudomonas aeruginosa IAM 1095; experiment: MIC, Pseudomonas aeruginosa IAM 1095; settings: IAM1095; Pseudomonas aeruginosa IAM 1095; read-out: MIC
[18] = system: Staphylococcus aureus 0127; experiment: MIC, Staphylococcus aureus 0127 (macrolide resistant)
Excerpt: as §1, §2

Serratia marcescens = experiment: MIC, Serratia marcescens; settings: read-out: MIC
[19] = system: Staphylococcus aureus MS353 C36; experiment: MIC, Staphylococcus aureus MS353 C36; settings: MS353C36
[20] = Staphylococcus aureus 0127, macrolide resistant bacteria A group, read-out: MIC

Measured: MIC

CCC1OC(=O)CC(O)C(C)C(OC2OC(C)C(O)C(N(C)C)C2O)C(CC=O)CC(C)C(=O)C=CC(C)=CC1COc1ccc(C)cc1 (stereo not shown)
0.1 µg/mL: [7] | [12]
> 100 µg/mL: Shigella sonnei E33 | Salmonella typhosa H901 | [13] | [17]
6.3 µg/mL: [10]
0.2 µg/mL: [2] | [16] | [19]
≤ 0.05 µg/mL: [3] | [6] | [8] | [11] | Sarcina lutea ATCC 9341 | [14]
100 µg/mL: [15] | Serratia marcescens
25 µg/mL: [4] | Proteus vulgaris OX19
50 µg/mL: [1] | [5] | [9] | Escherichia coli B | [18]; [20]

CCC1OC(=O)CC(O)C(C)C(OC2OC(C)C(O)C(N(C)C)C2O)C(CC=O)CC(C)C(=O)C=CC(C)=CC1COc1ccccc1 (stereo not shown)
12.5 µg/mL: Proteus vulgaris OX19
100 µg/mL: [1] | Salmonella typhosa H901 | [13] | [18]; [20]
≤ 0.05 µg/mL: [2] | [3] | [6] | [7] | [8] | [11] | Sarcina lutea ATCC 9341 | [12] | [14] | [16] | [19]
6.3 µg/mL: [5]
50 µg/mL: Shigella sonnei E33 | [4] | [9] | [15] | [17]
1.6 µg/mL: [10]
25 µg/mL: Escherichia coli B | Serratia marcescens

CCC1OC(=O)CC(O)C(C)C(OC2OC(C)C(O)C(N(C)C)C2O)C(CC=O)CC(C)C(=O)C=CC(C)=CC1COc1cccc(N(CC)CC)c1 (stereo not shown)
0.8 µg/mL: [16]
3.1 µg/mL: [10]
25 µg/mL: Proteus vulgaris OX19 | [9] | [18]; [20]
0.4 µg/mL: [2] | [19]
> 100 µg/mL: Shigella sonnei E33 | Escherichia coli B | Salmonella typhosa H901 | [13] | [15] | [17] | Serratia marcescens
12.5 µg/mL: [4]
≤ 0.05 µg/mL: [14]
0.2 µg/mL: [7] | [8] | [12]
50 µg/mL: [1] | [5]
0.1 µg/mL: [3] | [6] | [11] | Sarcina lutea ATCC 9341

CCC1OC(=O)CC(O)C(C)C(OC2OC(C)C(O)C(N(C)C)C2O)C(CC=O)CC(C)C(=O)C=CC(C)=CC1COc1ccc(Cl)cc1Cl (stereo not shown)
6.3 µg/mL: [4]
25 µg/mL: [1] | [5] | Proteus vulgaris OX19 | Serratia marcescens
> 100 µg/mL: Shigella sonnei E33 | Escherichia coli B | Salmonella typhosa H901 | [13] | [15] | [17]
0.1 µg/mL: [7] | [12] | [19]
12.5 µg/mL: [9] | [18]; Staphylococcus aureus, 0127
0.2 µg/mL: [2] | [16]
≤ 0.05 µg/mL: [3] | [6] | [8] | [11] | Sarcina lutea ATCC 9341 | [14]
3.1 µg/mL: [10]

CCC1OC(=O)CC(O)C(C)C(OC2OC(C)C(O)C(N(C)C)C2O)C(CC=O)CC(C)C(=O)C=CC(C)=CC1COc1ccc(Cl)cc1 (stereo not shown)
6.3 µg/mL: [5]
25 µg/mL: [9] | [18]; [20]
≤ 0.05 µg/mL: [3] | [6] | [8] | [11] | Sarcina lutea ATCC 9341 | [14] | [19]
3.1 µg/mL: [10]
0.1 µg/mL: [2] | [7] | [12] | [16]
12.5 µg/mL: [4] | Proteus vulgaris OX19
> 100 µg/mL: Salmonella typhosa H901 | [13] | [17]
50 µg/mL: [1] | Shigella sonnei E33 | Escherichia coli B | [15] | Serratia marcescens

CCC1OC(=O)CC(O)C(C)C(OC2OC(C)C(O)C(N(C)C)C2O)C(CC=O)CC(C)C(=O)C=CC(C)=CC1COc1ccc(OC)cc1 (stereo not shown)
3.1 µg/mL: [10]
50 µg/mL: [5] | Proteus vulgaris OX19
0.2 µg/mL: [2] | [7] | [12] | [16]
0.1 µg/mL: [19]
> 100 µg/mL: [1] | Shigella sonnei E33 | Salmonella typhosa H901 | [13] | [15] | [17] | [18]; [20] | Serratia marcescens
100 µg/mL: [4] | [9] | Escherichia coli B
≤ 0.05 µg/mL: [3] | [6] | [8] | [11] | Sarcina lutea ATCC 9341 | [14]

CCC1OC(=O)CC(O)C(C)C(OC2OC(C)C(O)C(N(C)C)C2O)C(CC=O)CC(C)C(=O)C=CC(C)=CC1COc1cccc([N+](=O)[O-])c1 (stereo not shown)
50 µg/mL: [4] | Escherichia coli B | [17] | Serratia marcescens
0.1 µg/mL: [2] | [7] | [16] | [19]
25 µg/mL: Proteus vulgaris OX19
100 µg/mL: Shigella sonnei E33 | [9] | Salmonella typhosa H901 | [15] | [18]; [20]
1.6 µg/mL: [10]
≤ 0.05 µg/mL: [3] | [6] | [8] | [11] | Sarcina lutea ATCC 9341 | [12] | [14]
> 100 µg/mL: [1] | [13]
12.5 µg/mL: [5]
